Patent US12221494B2, “Short synthetic peptides and their uses for treating retinal degenerative diseases and/or tissue injuries” (MacKay Memorial Hospital, priority 2019, dated 2025)

Key:
[1] = tested on: Sprague-Dawley rats, retinal ischemia/reperfusion (I/R) injury; test: Retinal vasculature analysis (acellular capillaries) 14 days after I/R injury; type: in vivo; details: rat
Protocol: (§1) Experimental procedures were approved by the Mackay Memorial Hospital Review Board (Taiwan, R.O.C.). All surgeries were performed under aseptic conditions. Adult 10-week-old male Sprague-Dawley rats (initial body weight=312±11 g) were anesthetized by an intraperitoneal injection of xylazine (10 mg/kg). Peptide was dissolved in 0.85% normal saline to 1 mM and delivered by the subconjunctival injection of 100 μL peptide through a 31-Gneedle with a micro-syringe before the induction of I/R. Normal saline was as a vehicle control. Rat I/R was performed after peptide or vehicle injection for 4 h. Pupils were dilated with 0.5% tropicamide and 0.5% phenylephrine. Body temperature was maintained at 37° C. using a heating blanket After dilation of the pupil, the anterior chamber of the right eye was cannulated with a 27-gauge needle connected to a physiological saline reservoir. The intraocular pressure (IOP) was raised to 110 mmHg by keeping the reservoir at 150 cm above the eye, and retinal ischemia was confirmed by observing whitening of the iris and the loss of the red reflex of the retina. After 90 min of ischemia, the cannulating needle was withdrawn and the IOP was returned to normal pressure, resulting in recovery of the blood supply from the retinal artery and reperfusion injury induced. The reperfusion was evident by the return of the red reflex. Corneal analgesia was achieved using 1 or 2 drops of 0.4% oxybuprocaine hydrochloride, and Ofloxacin ophthalmic gel (0.3%) was applied topically to the eye before and after the procedure. Only the right eye was used in all experiments. A sham procedure was performed at left eye served as an intra-animal control.
Rats (n=6 in each group) were euthanized using an overdose of pentobarbital at 14 days after I/R injury, the eyeballs were fixed with 4% PFA for overnight at 4° C. […] Ten sections per eye were averaged and the mean of six eyes was recorded as the representative value for each group.

[2] = tested on: Sprague-Dawley rats, retinal ischemia/reperfusion (I/R) injury; test: Immunofluorescence staining of retinal microglia/astrocytes 14 days after I/R injury; type: in vivo; details: rat
Protocol: as §1, with “Only the right eye was used in all experiments. A sham procedure was performed at left eye served as an intra-animal control.” left out
Deparaffinized retinal sections were blocked with 10% goat serum and 5% bovine serum albumin (BSA) in PBS containing 0.5% TritonX-100 (PBST) for 20 min at room temperature for blocking nonspecific staining. […] The slides were then rinsed with PBST three times, mounted with FluorSave™ reagent (Calbiochem) and viewed with an epifluorescence microscope (Zeiss Axioplan 2 imaging; Zeiss, Oberkochen, Germany) Three sections per eye were averaged and the mean of six eyes was recorded as the representative value for each group.

TNF-α mRNA = test: Hyperosmotic stress-induced TNF-α gene expression in rabbit corneal epithelial cells (qPCR); type: cell-based; details: 20 μM peptide 6 h, then hyperosmotic medium (463 mOsM) 3 h, solvent 12.8-fold
Protocol: Total RNA was extracted from cells using TRIzol (Invitrogen). Synthesis of cDNA was performed with 1 μg of total RNA at 50° C. for 50 min using oligo(dT) primers and reverse transcriptase (Superscript III; Invitrogen). Briefly, quantification of cDNA was performed in the LightCycler (Roche, Mannheim, Germany) using the DNA Master SYBR Green I kit (Roche) with the following cycling conditions: initial denaturation at 95° C. for 10 min, followed by 40 cycles at 95° C. for 10 s, 60° C. for 10 s, and 72° C. for 10 s and a 5-min terminal incubation at 72° C. The data were calculated with AACt. The expression was then normalized against the expression of glyceraldehyde-3-phosphate dehydrogenase (GAPDH). The PCR primers were mouse Survivin sense, 5′-[…]-3′ (SEQ ID NO: 27), anti-sense, 5′-[…]-3′ (SEQ ID NO: 28) (accession number: NM_001012273.1; PCR product: 136 bp); mouse GAPDH sense, 5′-[…]-3′ (SEQ ID NO: 29), anti-sense, 5′-[…]-3′ (SEQ ID NO: 30) (NM_001289726.1; 149 bp). For analysis rabbit inflammatory gene expression, The PCR primers were rabbit TNF-αsense, 5′-[…]-3′ (SEQ ID NO: 31), anti-sense, 5′-[…]-3′ (SEQ ID NO: 32) (accession number: NM 001082263.1); rabbit IL-1βsense, 5′-[…]-3′(SEQ ID NO: 33), anti-sense, 5′-[…]-3′ (SEQ ID NO: 34) (NM 001082201.1); rabbit GAPDH sense, 5′-[…]-3′ (SEQ ID NO: 35), anti-sense, 5′-[…]-3′ (SEQ ID NO: 36) (accession number:NM 001082253.1). The cycle threshold (Ct) values of the PCR product and a GAPDH (Glyceraldehyde 3-phosphate dehydrogenase) control mRNA were used to calculate relative quantities of mRNA.
Limbal stem epithelial cells (LSEC) were isolated from 6-month-old New Zealand white rabbits and continuously cultivated for 14 days byDMEM/F-12basalmedium based cell-suspension culture to achieve corneal-liked epithelial cell differentiation as previously described (Ho et al., Stem Cells. 2013; 31:1775). […] After 3 h, quantitative real-time PCR was used to estimate HOP-induced Tumor necrosis factor (TNF)-α and nterleukin-1 beta (IL-1β) expressions. […]

Substance: NH2-(D-Ser)-Leu-Gly-Ala-Glu-Gln-COOH (SLGAEQ; HELM PEPTIDE1{[dS].L.G.A.E.Q}$$$$V2.0; SMILES CC(C)C[C@H](NC(=O)[C@H](N)CO)C(=O)NCC(=O)N[C@@H](C)C(=O)N[C@@H](CCC(=O)O)C(=O)N[C@@H](CCC(N)=O)C(=O)O) [6-mer dS]
- number of degenerate capillaries, in words ([1]; 14 days after I/R injury): The number of degenerate capillaries was reduced
- Number of acellilar capillaries ([1]; 14 days post-ischemia, Vehicle + I/R 7.2 ± 0.9): 2.3 ± 0.7 /mm^2
- cytotoxic effect on retinal vasculature ([1]; sham testing in contralateral eye): had no cytotoxic effect on retinal vasculature
- activation of Iba-1-positive microglial cells and GFAP-positive astrocytes, in words [2]: less prominent
- Iba-1-positive Microglia ([2]; Control 3.3 ± 1.2, Vehicle + I/R 24.7 ± 1.6): 5.8 ± 1.0 /400 × field
- GFAP-positive astrocytes ([2]; Control 6.9 ± 2.0, Vehicle + I/R 28.6 ± 2.2): 10.3 ± 1.8 /400 × field
- mRNA expression of TNF-α, in words (TNF-α mRNA): apparently repressed the mRNA expression of TNF-α and IL-1β
